Results as given in ChEMBL document CHEMBL1150587, “Evaluation of the potential cancer chemotherapeutic efficacy of natural product isolates employing in vivo hollow fiber tests” (J Nat Prod, 2002).
Active and inactive are the calls of the source. The rule behind the calls is not given here.

What was measured:
Col2 = assay: Cytotoxicity against human Col2 cells after 72 hrs by SRB assay; format: functional, cell-based; conditions: Col2, 72 h
LNCaP [1] = assay: Growth inhibition of human LNCAP cells implanted subcutaneously to NCr nu/nu mouse at 7.13 to 28.5 umol/kg, ip administered from day 3 to 6 after implantation measured on day 7 by MTT-based hollow-fiber test; format: functional
Mus musculus [2] = assay: Toxicity in tumor cell implanted NCr nu/nu mouse assessed as body weight change at 14.3 umol/kg, ip administered from day 3 to 6 after implantation measured on day 7; format: organism-based; conditions: in vivo
SK-MEL-2 [3] = assay: Cytotoxicity against human SK-MEL-2 cells after 72 hrs by SRB assay; format: functional, cell-based; conditions: SK-MEL-2, 72 h
Mus musculus [4] = assay: Toxicity in tumor-implanted NCr nu/nu mouse at 57.5 umol/kg, ip administered from day 3 to 6 after implantation measured on day 7 by hollow-fiber test; format: organism-based; conditions: in vivo
Mus musculus [5] = assay: Toxicity in NCr nu/nu mouse subcutaneously implanted with human KB cells assessed as mortality at 28.5 umol/kg, ip administered on day 10, 13, 16, 20 of implantation; format: organism-based; conditions: in vivo
Mus musculus [6] = assay: Toxicity in NCr nu/nu mouse subcutaneously implanted with human KB cells assessed as mortality at 14.3 umol/kg, ip administered on day 10, 13, 16, 20 of implantation; format: organism-based; conditions: in vivo
Mus musculus [7] = assay: Toxicity in tumor-implanted NCr nu/nu mouse at 144 umol/kg, ip administered from day 3 to 6 after implantation measured on day 7 by hollow-fiber test; format: organism-based; conditions: in vivo
Mus musculus [8] = assay: Toxicity in tumor cell implanted NCr nu/nu mouse assessed as body weight change at 28.5 umol/kg, ip administered from day 3 to 6 after implantation measured on day 7; format: organism-based; conditions: in vivo
P388 [9] = assay: Growth inhibition of mouse P388 cells implanted subcutaneously to NCr nu/nu mouse at 7.13 to 28.5 umol/kg, ip administered from day 3 to 6 after implantation measured on day 7 by MTT-based hollow-fiber test; format: functional
SW626 [10] = assay: Cytotoxicity against human SW626 cells after 72 hrs by SRB assay; format: functional, cell-based; conditions: SW626, 72 h
Mus musculus [11] = assay: Toxicity in NCr nu/nu mouse subcutaneously implanted with human KB cells assessed as change in body weight at 14.3 umol/kg, ip administered on day 10, 13, 16, 20 of implantation; format: organism-based; conditions: in vivo
Mus musculus [12] = assay: Toxicity in NCr nu/nu mouse subcutaneously implanted with human KB cells assessed as mortality at 7.13 umol/kg, ip administered on day 10, 13, 16, 20 of implantation; format: organism-based; conditions: in vivo
P388 [13] = assay: Cytotoxicity against mouse P388 cells after 72 hrs by SRB assay; format: functional, cell-based; conditions: P388, 72 h
Mus musculus [14] = assay: Toxicity in NCr nu/nu mouse subcutaneously implanted with human KB cells assessed as change in body weight at 7.13 umol/kg, ip administered on day 10, 13, 16, 20 of implantation; format: organism-based; conditions: in vivo
MCF7 [15] = assay: Growth inhibition of human MCF7 cells implanted subcutaneously to NCr nu/nu mouse at 7.13 to 28.5 umol/kg, ip administered from day 3 to 6 after implantation measured on day 7 by MTT-based hollow-fiber test; format: functional
KB [16] = assay: Growth inhibition of human KB cells implanted subcutaneously to NCr nu/nu mouse assessed as tumor size at 7.13 to 72.6 umol/kg, ip administered on day 10, 13, 16, 20 of implantation; format: functional, organism-based
Lu1 [17] = assay: Growth inhibition of human Lu1 cells implanted subcutaneously to NCr nu/nu mouse at 7.13 to 28.5 umol/kg, ip administered from day 3 to 6 after implantation measured on day 7 by MTT-based hollow-fiber test; format: functional
LNCaP [18] = assay: Growth inhibition of ip dosed intraperitoneally implanted human LNCAP cells to NCr nu/nu mouse administered from day 3 to 6 after implantation measured on day 7 by MTT-based hollow-fiber test; format: functional, organism-based
SW626 [19] = assay: Growth inhibition of human SW626 cells implanted subcutaneously to NCr nu/nu mouse at 7.13 to 28.5 umol/kg, ip administered from day 3 to 6 after implantation measured on day 7 by MTT-based hollow-fiber test; format: functional
KB [20] = assay: Cytotoxicity against human KB cells after 72 hrs by SRB assay; format: functional, cell-based
Lu1 [21] = assay: Growth inhibition of human Lu1 cells implanted intraperitoneally to NCr nu/nu mouse at 7.13 to 28.5 umol/kg, ip administered from day 3 to 6 after implantation measured on day 7 by MTT-based hollow-fiber test; format: functional
Mus musculus [22] = assay: Toxicity in tumor cell implanted NCr nu/nu mouse assessed as body weight change at 7.13 umol/kg, ip administered from day 3 to 6 after implantation measured on day 7; format: organism-based; conditions: in vivo
SK-MEL-2 [23] = assay: Growth inhibition of human SK-MEL-2 cells implanted subcutaneously to NCr nu/nu mouse at 7.13 to 28.5 umol/kg, ip administered from day 3 to 6 after implantation measured on day 7 by MTT-based hollow-fiber test; format: functional
P388 [24] = assay: Growth inhibition of mouse P388 cells implanted intraperitoneally to NCr nu/nu mouse at 7.13 to 28.5 umol/kg, ip administered from day 3 to 6 after implantation measured on day 7 by MTT-based hollow-fiber test; format: functional
SK-MEL-2 [25] = assay: Growth inhibition of human SK-MEL-2 cells implanted intraperitoneally to NCr nu/nu mouse at 7.13 to 28.5 umol/kg, ip administered from day 3 to 6 after implantation measured on day 7 by MTT-based hollow-fiber test; format: functional
Lu1 [26] = assay: Growth inhibition of ip dosed intraperitoneally implanted human Lu1 cells to NCr nu/nu mouse administered from day 3 to 6 after implantation measured on day 7 by MTT-based hollow-fiber test; format: functional, organism-based
MCF7 [27] = assay: Cytotoxicity against human MCF7 cells after 72 hrs by SRB assay; conditions: MCF7, 72 h
[28] = Cytotoxicity against human BC1 cells after 72 hrs by SRB assay; conditions: BC1, 72 h
[29] = Cytotoxicity against human KBV1 cells after 72 hrs by SRB assay; format: functional, cell-based; conditions: KB-V1, 72 h
LNCaP [30] = assay: Growth inhibition of human LNCAP cells implanted intraperitoneally to NCr nu/nu mouse at 7.13 to 28.5 umol/kg, ip administered from day 3 to 6 after implantation measured on day 7 by MTT-based hollow-fiber test; format: functional
KB [31] = assay: Growth inhibition of human KB cells implanted intraperitoneally to NCr nu/nu mouse at 7.13 to 28.5 umol/kg, ip administered from day 3 to 6 after implantation measured on day 7 by MTT-based hollow-fiber test; format: functional
MCF7 [32] = assay: Growth inhibition of human MCF7 cells implanted intraperitoneally to NCr nu/nu mouse at 7.13 to 28.5 umol/kg, ip administered from day 3 to 6 after implantation measured on day 7 by MTT-based hollow-fiber test; format: functional
KB [33] = assay: Growth inhibition of human KB cells implanted subcutaneously to NCr nu/nu mouse at 7.13 to 28.5 umol/kg, ip administered from day 3 to 6 after implantation measured on day 7 by MTT-based hollow-fiber test; format: functional
Mus musculus [34] = assay: Toxicity in NCr nu/nu mouse subcutaneously implanted with human KB cells assessed as change in body weight at 28.5 umol/kg, ip administered on day 10, 13, 16, 20 of implantation; format: organism-based; conditions: in vivo
LNCaP [35] = assay: Cytotoxicity against human LNCAP cells after 72 hrs by SRB assay; format: functional, cell-based
Lu1 [36] = assay: Cytotoxicity against human Lu1 cells after 72 hrs by SRB assay; format: functional, cell-based; conditions: Lu1, 72 h
SW626 [37] = assay: Growth inhibition of human SW626 cells implanted intraperitoneally to NCr nu/nu mouse at 7.13 to 28.5 umol/kg, ip administered from day 3 to 6 after implantation measured on day 7 by MTT-based hollow-fiber test; format: functional

In the case of `C[C@@H]1CC[C@@]2(OC1)O[C@H]1C[C@H]3[C@@H]4CC=C5C[C@@H](O[C@@H]6O[C@H](CO)[C@@H](O[C@@H]7O[C@@H](C)[C@H](O)[C@@H](O)[C@H]7O)[C@H](O)[C@H]6O[C@@H]6O[C@@H](C)[C@H](O)[C@@H](O)[C@H]6O)CC[C@]5(C)[C@H]4CC[C@]3(C)[C@H]1[C@@H]2C` [DIOSCIN], the IC50 (Col2) is reported as 2.8 µM, the “inhibition (INH)” value (LNCaP [1]) is reported as 35.9% and the Activity (Mus musculus [2]) is reported as 0.45 g. The IC50 (SK-MEL-2 [3]) was 1.8 µM, the Activity (Mus musculus [4]) was “Toxic” and the Activity (Mus musculus [5]) was “Non-toxic”. For the same compound, the Activity (Mus musculus [6]) was “Non-toxic”, the Activity (Mus musculus [7]) was “Toxic” and the Activity (Mus musculus [8]) was -0.65 g. The “inhibition (INH)” value (P388 [9]) was 0%, the IC50 (SW626 [10]) was 3.1 µM and the Activity (Mus musculus [11]) was 8.4%. The Activity (Mus musculus [12]) was “Non-toxic”, the IC50 (P388 [13]) was 21.9 µM and the Activity (Mus musculus [14]) was 7.1%. The “inhibition (INH)” value (MCF7 [15]) was 7.3%, the Activity (KB [16]) was “inactive” and the “inhibition (INH)” value (Lu1 [17]) was 0%. The Activity (LNCaP [18]) was “Dose-dependent effect”, the “inhibition (INH)” value (SW626 [19]) was 8.7% and the IC50 (KB [20]) was 20.7 µM. For the same compound, the “inhibition (INH)” value (Lu1 [21]) was 24.6%, the Activity (Mus musculus [22]) was 0.8 g and the “inhibition (INH)” value (SK-MEL-2 [23]) was 0%. The “inhibition (INH)” value (P388 [24]) was 0%, the “inhibition (INH)” value (SK-MEL-2 [25]) was 2.3% and the Activity (Lu1 [26]) was “Dose-dependent effect”. The IC50 (MCF7 [27]) was 22.4 µM, the IC50 [28] was 3.8 µM and the IC50 [29] was over 23 µM. The “inhibition (INH)” value (LNCaP [30]) was 36.9%, the “inhibition (INH)” value (KB [31]) was 79% and the “inhibition (INH)” value (MCF7 [32]) was 0%. For the same compound, the “inhibition (INH)” value (KB [33]) was 3.6%, the Activity (Mus musculus [34]) was 8.6% and the IC50 (LNCaP [35]) was 1.7 µM. For the same compound, the IC50 (Lu1 [36]) was 1.2 µM and the “inhibition (INH)” value (SW626 [37]) was 4.1%.
